Test results taken from patent US12364696B2, “Treatment of autoimmune disease” (priority 2019, dated 2025).
“And” between values parts separate entries of the source, which are not always exact repeats. Equal entries are not always repeated. “Also recorded” adds a separate entry of the source.

Tests used:
[1] = test system: patients with chronic, refractory, moderate to severe alopecia areata; experiment: Retrospective clinical study of orally administered and sublingual tofacitinib, 7-point assessment scale of hair regrowth; format: in vivo, human; settings: for Increase in hair growth of >+1, % of patients / Increase in hair growth of >+1, number of patients / Mean score on 7-point assessment scale / Patients who achieved +3 (complete response, CR) / Median score on 7-point assessment scale: all patients
[2] = test system: patients with alopecia areata; settings: oral tofacitinib 5 mg twice daily for 3 months; cited from earlier work
[3] = dose range 1-20 mg, oral or sublingual
[4] = of 71 patients on immunosuppressive co-therapy at start
[5] = oral or sublingual, n = 127, listed as Tofacitinib
[6] = orally administered, 3 months, n = 39, mean dose 4.19 mg
[7] = orally administered, 6 months, n = 36, mean dose 4.96 mg
[8] = orally administered, 9 months, n = 25, mean dose 5.58 mg
[9] = orally administered, 12 months, n = 21, mean dose 5.63 mg
[10] = orally administered, 15 months, n = 16, mean dose 6.90 mg
[11] = orally administered, 18 months, n = 7, mean dose 6.07 mg
[12] = prolonged disease duration >10 years, n = 38
[13] = sublingual, 3 months, n = 88, mean dose 3.73 mg
[14] = sublingual, 6 months, n = 74, mean dose 4.48 mg
[15] = sublingual, 9 months, n = 53, mean dose 4.71 mg
[16] = sublingual, 12 months, n = 34, mean dose 6.25 mg
[17] = sublingual, 15 months, n = 15, mean dose 6.81 mg
[18] = sublingual, 18 months, n = 3, mean dose 5.00 mg
[19] = tofacitinib monotherapy, n = 56

For `C[C@@H]1CCN(C(=O)CC#N)C[C@@H]1N(C)c1ncnc2[nH]ccc12` [tofacitinib], the “Late responders with CR” value ([1]; 31 late responders, 6 months) was 2, the “Late responders with a score of 0” value ([1]; 31 late responders, 6 months) was 8 and the “Late responders with a score of >+1” value ([1]; 31 late responders, 6 months) was 17. For the same compound, the “Late responders in CR” value ([1]; 31 late responders, 9 months) was 4, the “Late responders with a score of >+1” value ([1]; 31 late responders, 9 months) was 20 and the “Late responders who had achieved CR” value ([1]; 31 late responders, by 15 months) was 10. The “Overall effect on hair loss and regrowth” value [1, 3] was “arrested hair loss and stimulated regrowth in the overwhelming majority of patients; also recorded: highly effective”, the Tolerability [1, 3] was “well tolerated” and the “Patients who developed asymptomatic hepatic transaminitis leading to treatment discontinuation” value ([1]; later diagnosed with nonalcoholic steatohepatitis) was “One”. For the same compound, the “Patients who discontinued all other immunosuppressive treatment after starting tofacitinib, %” value [1, 4] was 46%, the “Patients who discontinued all other immunosuppressive treatment after starting tofacitinib, number” value [1, 4] was “Thirty-three” and the “Early responders who achieved a +2” value ([1]; of the 67 early responders) was 40%. For the same compound, the “Early responders who achieved a +3” value ([1]; of the 67 early responders) was 22%, the “Patients who have remained in CR for >12 months” value ([1]; oral or sublingual) was “nine” and the “Patients who remain in CR after six months of continued treatment” value ([1]; oral or sublingual) was “Twenty-four”. The Side effects ([1]; oral or sublingual) was “infrequent and mild”, the “Increase in hair growth of >+1, % of patients” value (from here on “Increase … % of patients”) ([1]; oral or sublingual, 3 months) was 56% and the “Increase in hair growth of >+1, number of patients” value (shortened to “Increase … number of patients”) ([1]; oral or sublingual, 3 months) was 71. The “Mean score on 7-point assessment scale” value ([1]; oral or sublingual, 3 months) was 0.84 and 0.8, the “Patients who achieved +3 (complete response, CR)” value ([1]; oral or sublingual, 3 months) was 12% and the “Median score on 7-point assessment scale” value ([1]; oral or sublingual, 3 months (IQR 0 to +2)) was “+1 (25-49% hair loss)”. For the same compound, the “Mean score on 7-point assessment scale” value ([1]; oral or sublingual, 6 months) was 1.1, the “Mean score on 7-point assessment scale” value ([1]; oral or sublingual, 9 months) was 1.1 and the “Increase … % of patients” value ([1]; oral or sublingual, 12 months) was 78%. For the same compound, the “Increase … number of patients” value ([1]; oral or sublingual, 12 months) was 43, the “Mean score on 7-point assessment scale” value ([1]; oral or sublingual, 12 months) was 1.66 and 1.6 and the “Patients who achieved +3 (complete response, CR)” value ([1]; oral or sublingual, 12 months) was 40%. The “Median score on 7-point assessment scale” value ([1]; oral or sublingual, 12 months (IQR +1 to +3)) was “+2 (1-24% hair loss)”, the “Mean score on 7-point assessment scale” value ([1]; oral or sublingual, 15 months) was 1.9 and the “Increase … % of patients” value ([1]; oral or sublingual, 18 months) was 90%. For the same compound, the “Increase … number of patients” value ([1]; oral or sublingual, 18 months) was 9, the “Mean score on 7-point assessment scale” value ([1]; oral or sublingual, 18 months) was 2.33 and 2.4 and the “Patients who achieved +3 (complete response, CR)” value ([1]; oral or sublingual, 18 months) was 80%. The “Median score on 7-point assessment scale” value ([1]; oral or sublingual, 18 months (IQR +3 to +3)) was “+3 (No hair loss (SALT 0))”, the “Early responders (>+1 score by 3 months of treatment), % of patients” value ([1]; oral or sublingual, n = 127) was 53% and the “Early responders (>+1 score by 3 months of treatment), number of patients” value ([1]; oral or sublingual, n = 127) was “Sixty-seven”. The “Late responders (>+1 score after 6 months of treatment), % of patients” value ([1]; oral or sublingual, n = 127) was 24%, the “Late responders (>+1 score after 6 months of treatment), number of patients” value ([1]; oral or sublingual, n = 127) was “Thirty-one” and the “Primary treatment failure (failed to respond), number of patients” value ([1]; oral or sublingual, n = 127) was “Twenty-four”. For the same compound, the “Primary treatment failure, % of patients” value ([1]; oral or sublingual, n = 127) was 19%, the “Relapse (at least one grade deterioration in score), number of patients” value ([1]; oral or sublingual, n = 127) was “Twenty-eight” and the “Relapse, % of patients” value ([1]; oral or sublingual, n = 127) was 22%. The “Primary treatment failure (failed to respond), number of patients” value [1, 5] was 24, the “Relapse (at least one grade deterioration in score), number of patients” value [1, 5] was 28 and the “Score +1, number of patients” value [1, 6] was 7. For the same compound, the “Score +2, number of patients” value [1, 6] was 8, the “Score +3, % of patients” value [1, 6] was 18% and the “Score +3, number of patients” value [1, 6] was 7. For the same compound, the “Total non-responders, % of patients” value [1, 6] was 44%, the “Total non-responders, number of patients” value [1, 6] was 17 and the “Total responders, % of patients” value [1, 6] was 56%. The “Total responders, number of patients” value [1, 6] was 22, the “Score +1, number of patients” value [1, 7] was 4 and the “Score +2, number of patients” value [1, 7] was 7. The “Score +3, % of patients” value [1, 7] was 27%, the “Score +3, number of patients” value [1, 7] was 10 and the “Total non-responders, % of patients” value [1, 7] was 42%. The “Total non-responders, number of patients” value [1, 7] was 15, the “Total responders, % of patients” value [1, 7] was 58% and the “Total responders, number of patients” value [1, 7] was 21. The “Score +1, number of patients” value [1, 8] was 3, the “Score +2, number of patients” value [1, 8] was 4 and the “Score +3, % of patients” value [1, 8] was 48%. For the same compound, the “Score +3, number of patients” value [1, 8] was 12, the “Total non-responders, % of patients” value [1, 8] was 24% and the “Total non-responders, number of patients” value [1, 8] was 6. The “Total responders, % of patients” value [1, 8] was 76%, the “Total responders, number of patients” value [1, 8] was 19 and the “Score +1, number of patients” value [1, 9] was 1. The “Score +2, number of patients” value [1, 9] was 5, the “Score +3, % of patients” value [1, 9] was 52% and the “Score +3, number of patients” value [1, 9] was 11. The “Total non-responders, % of patients” value [1, 9] was 19%, the “Total non-responders, number of patients” value [1, 9] was 4 and the “Total responders, % of patients” value [1, 9] was 81%. The “Total responders, number of patients” value [1, 9] was 17, the “Score +1, number of patients” value [1, 10] was 1 and the “Score +2, number of patients” value [1, 10] was 2. For the same compound, the “Score +3, % of patients” value [1, 10] was 56%, the “Score +3, number of patients” value [1, 10] was 9 and the “Total non-responders, % of patients” value [1, 10] was 25%. For the same compound, the “Total non-responders, number of patients” value [1, 10] was 4, the “Total responders, % of patients” value [1, 10] was 75% and the “Total responders, number of patients” value [1, 10] was 12. For the same compound, the “Score +1, number of patients” value [1, 11] was 0, the “Score +2, number of patients” value [1, 11] was 1 and the “Score +3, % of patients” value [1, 11] was 71%. The “Score +3, number of patients” value [1, 11] was 5, the “Total non-responders, % of patients” value [1, 11] was 14% and the “Total non-responders, number of patients” value [1, 11] was 1. For the same compound, the “Total responders, % of patients” value [1, 11] was 86%, the “Total responders, number of patients” value [1, 11] was 6 and the “Secondary treatment failure, number of patients” value ([1]; out of 28 who experienced a relapse while on treatment) was “Five”. For the same compound, the “Patients who achieved a CR, %” value ([1]; patients with AT/AU) was 37%, the “Patients who achieved a CR, number” value ([1]; patients with AT/AU) was 13 and the “Patients who achieved a response, %” value ([1]; patients with AT/AU) was 71%. The “Patients who achieved a response, number” value ([1]; patients with AT/AU) was 25, the “Early responders, number of patients” value [1, 12] was 21 and the “Late responders, number of patients” value [1, 12] was 10. For the same compound, the “Never responded, number of patients” value [1, 12] was 6, the “Patients who had regrowth” value [1, 12] was 81.6% and the “Relapsed, number of patients” value [1, 12] was 2. For the same compound, the “Score +1, number of patients” value [1, 13] was 21, the “Score +2, number of patients” value [1, 13] was 20 and the “Score +3, % of patients” value [1, 13] was 9%. The “Score +3, number of patients” value [1, 13] was 8, the “Total non-responders, % of patients” value [1, 13] was 46.5% and the “Total non-responders, number of patients” value [1, 13] was 41. For the same compound, the “Total responders, % of patients” value [1, 13] was 53%, the “Total responders, number of patients” value [1, 13] was 49 and the “Score +1, number of patients” value [1, 14] was 18. For the same compound, the “Score +2, number of patients” value [1, 14] was 17, the “Score +3, % of patients” value [1, 14] was 20% and the “Score +3, number of patients” value [1, 14] was 15. The “Total non-responders, % of patients” value [1, 14] was 32%, the “Total non-responders, number of patients” value [1, 14] was 24 and the “Total responders, % of patients” value [1, 14] was 68%. For the same compound, the “Total responders, number of patients” value [1, 14] was 50, the “Score +1, number of patients” value [1, 15] was 13 and the “Score +2, number of patients” value [1, 15] was 12. The “Score +3, % of patients” value [1, 15] was 26%, the “Score +3, number of patients” value [1, 15] was 14 and the “Total non-responders, % of patients” value [1, 15] was 26%. The “Total non-responders, number of patients” value [1, 15] was 14, the “Total responders, % of patients” value [1, 15] was 74% and the “Total responders, number of patients” value [1, 15] was 39. For the same compound, the “Score +1, number of patients” value [1, 16] was 8, the “Score +2, number of patients” value [1, 16] was 11 and the “Score +3, % of patients” value [1, 16] was 32%. For the same compound, the “Score +3, number of patients” value [1, 16] was 11, the “Total non-responders, % of patients” value [1, 16] was 15% and the “Total non-responders, number of patients” value [1, 16] was 5. The “Total responders, % of patients” value [1, 16] was 85%, the “Total responders, number of patients” value [1, 16] was 29 and the “Score +1, number of patients” value [1, 17] was 3. The “Score +2, number of patients” value [1, 17] was 5, the “Score +3, % of patients” value [1, 17] was 40% and the “Score +3, number of patients” value [1, 17] was 6. The “Total non-responders, % of patients” value [1, 17] was 7%, the “Total non-responders, number of patients” value [1, 17] was 1 and the “Total responders, % of patients” value [1, 17] was 93%. The “Total responders, number of patients” value [1, 17] was 14, the “Score +1, number of patients” value [1, 18] was 0 and the “Score +2, number of patients” value [1, 18] was 0. For the same compound, the “Score +3, % of patients” value [1, 18] was 100%, the “Score +3, number of patients” value [1, 18] was 3 and the “Total non-responders, number of patients” value [1, 18] was 0. The “Total responders, % of patients” value [1, 18] was 100%, the “Total responders, number of patients” value [1, 18] was 3 and the “Early responders, % of patients” value [1, 19] was 51.7%. The “Early responders, number of patients” value [1, 19] was “Twenty-nine”, the “Late responders, % of patients” value [1, 19] was 19.6% and the “Late responders, number of patients” value [1, 19] was 11. The “Patients who achieved a CR” value [1, 19] was “Eighteen”, the “Primary failures, % of patients” value [1, 19] was 26.7% and the “Primary failures, number of patients” value [1, 19] was 15. For the same compound, the “Secondary failure, number of patients” value [1, 19] was 1 and the “Patients achieving a 50% or greater reduction in SALT score” value [2] was 32%.
